Measured values taken from the OligoGym collection.
These antisense oligonucleotides have a phosphorothioate backbone; sugars and methylation of C are not fully specified.

Conditions: ASO
Note: test concentration or dose not given here.

Sequence | remaining target (mRNA or protein) (fraction of control)
CGCATGGACACGAAGATG | ≥ 1
GGATCCTGTTGATCTCCT | ≥ 1
ACAGTGTTTTCCGCGGT | 0.53
AAGTCCAAGACAGAATCTGT | 0.46
TGCACCAGTGGCTCGGCT | ≥ 1
GGCTGCTGAGAATCTGAA | 0.78
GCTTGAAGAAATGTTTTA | ≥ 1
AGCGCCACACGCGACAGTAA | 0.56
CACCGATGCAGAGGTCGC | 0.87
CGCCCGGCGGCTCTTTCT | ≥ 1
CTGCTTCTTCTGCTCCAA | 0.57
TTCTCCTGTCCACTAGAG | 0.98
GTCCAGCCACTGCAGTGGCC | 0.82
GGCTGCGGAGCACGTCCT | 0.54
AAATAGGTAGCCAGGTGG | 0.99
CCCCTCCACAAAAGTGCC | 0.78
CCACTCCCACCTCCCACC | ≥ 1
TTGCTCTCGGGCCTGCTG | 0.21
AGGTAGTACACGGCTGAA | 0.28
CCACCACTACAGAGCAGG | ≥ 1
ACTGCCTTCTCTGCCCACTT | 0.41
AATCTTTAATTTCAGCCC | ≥ 1
GGGCCCAAAAGCAGCAGC | 0.89
TGATTTCTTCACCTTTTC | ≥ 1

Sequence | remaining target (mRNA or protein) (fraction of control)
GCTCCAGCAGCAGCAGCC | 0.94
CAGCGAGTACGTGACGGT | 0.93
TTCTGTGTGTCTGTGGCA | 0.19
GGTGGTGGAGTGCATAAGAG | 0.98
GATGGGGGTGGTGGAGTGCA | 0.75
TTCAATGGCTTCCACGAG | 0.94
CCTTGAAGACCTTGCGGA | 0.14
CGCCCGCCGGTGCCGCCT | 0.47
ATCCTTTGTATTTCTTTC | 0.85
TCCATTTCTTACGCTCTG | ≥ 1
GCCCTTTGCTTTCCAGAG | ≥ 1
TGTGGGCCGAGGCTGGAG | 0.85
AGCTCGCGCGAACCCCTA | ≥ 1
CTTAAGACATGACTGTTAAG | 0.89
AACGTGGTCACTTTATAG | 0.73
CCACTAGAGTGCGCCAGA | ≥ 1
ATTTCCTGGGATGTGCGG | 0.48
AAGGTTAAGATGCAGCAT | 0.55
AGGGAATAAATACAAAAG | ≥ 1
TGTCCTGGTGAGAGGCAG | 0.73
GCTTGAGTGCTGGGAACA | ≥ 1
CCCGCACGTCCTTGAAGA | 0.27
GCATCTGCTTGATGAAGG | ≥ 1
GTCCCAGAACCCTGCCCA | ≥ 1

Sequence | remaining target (mRNA or protein) (fraction of control)
TTACGCTCTGACTTCTGG | 0.81
CCCTAGTCCACAGGTTCC | ≥ 1
CCCCACGCTGCCCTCGGA | 0.8
GTGGAGTGCATAAGAGGCCA | 0.84
AAGACAATGTGGAATCGG | ≥ 1
TTGCCCAACCACTCGTTC | 0.45
CGCTCCGAAAAGAGACAG | 0.87
CTTCTTGCTGCCCTCGGG | ≥ 1
ACAGATCCAGTGGCTTGT | ≥ 1
TGCGCTCCTCCTCCGAGT | ≥ 1
CCAAAGAGCTGCTGGGAA | ≥ 1
TGTTAAGACACTGAAGAAAT | ≥ 1
ATTCTCCCAAAGCGTCCC | 0.81
GGGTCCGTTCCCTCAACA | ≥ 1
TGTCTGGGTCCACCGTGC | 0.45
CCTCCACAGCCACTGCAT | 0.97
GTCCCCCGACTCCCTTGC | 0.27
TTATTCATACCGTTGTTG | 0.96
AGGGAGGCTGCCTTTTCC | 0.63
TCACAGCAGGTTGATCTC | ≥ 1
GGCGGCCTTCTCATCCTC | 0.96
CTTTACTTCGCCGTCCAC | 0.59
